According to PubChem BioAssay (NCI):
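Protocol summary: plate cells (96-well), add compound at 5 concentrations, incubate 48 h, interpolate endpoints linearly. At the GI50, growth is halved. TGI: concentration producing complete growth inhibition.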

Legend:
Experiment in all cases: NCI tumour cell line growth inhibition, 48 h
786-0 renal = tested on: 786-0 renal
A498 renal = tested on: A498 renal
A549 NSCLC = tested on: A549 NSCLC
ACHN renal = tested on: ACHN renal
BT-549 breast = tested on: BT-549 breast
CAKI-1 renal = tested on: CAKI-1 renal
CCRF-CEM leukemia = tested on: CCRF-CEM leukemia
COLO 205 colon = tested on: COLO 205 colon
DU-145 prostate = tested on: DU-145 prostate
EKVX NSCLC = tested on: EKVX NSCLC
HCC-2998 colon = tested on: HCC-2998 colon
HCT-116 colon = tested on: HCT-116 colon
HCT-15 colon = tested on: HCT-15 colon
HL-60(TB) leukemia = tested on: HL-60(TB) leukemia
HOP-62 NSCLC = tested on: HOP-62 NSCLC
HOP-92 NSCLC = tested on: HOP-92 NSCLC
HS 578T breast = tested on: HS 578T breast
HT29 colon = tested on: HT29 colon
IGROV1 ovarian = tested on: IGROV1 ovarian
K-562 leukemia = tested on: K-562 leukemia
KM12 colon = tested on: KM12 colon
LOX IMVI melanoma = tested on: LOX IMVI melanoma
M14 melanoma = tested on: M14 melanoma
MALME-3M melanoma = tested on: MALME-3M melanoma
MCF7 breast = tested on: MCF7 breast
MDA-MB-231 breast = tested on: MDA-MB-231 breast
MDA-MB-435 = tested on: MDA-MB-435
MOLT-4 leukemia = tested on: MOLT-4 leukemia
NCI-H226 lung = tested on: NCI-H226 lung
NCI-H23 lung = tested on: NCI-H23 lung
NCI-H460 lung = tested on: NCI-H460 lung
NCI-H522 lung = tested on: NCI-H522 lung
NCI/ADR-RES ovarian = tested on: NCI/ADR-RES ovarian
OVCAR-3 ovarian = tested on: OVCAR-3 ovarian
OVCAR-4 ovarian = tested on: OVCAR-4 ovarian
OVCAR-5 ovarian = tested on: OVCAR-5 ovarian
OVCAR-8 ovarian = tested on: OVCAR-8 ovarian
PC-3 prostate = tested on: PC-3 prostate
RPMI-8226 leukemia = tested on: RPMI-8226 leukemia
RXF 393 renal = tested on: RXF 393 renal
SF-268 CNS = tested on: SF-268 CNS
SF-295 CNS = tested on: SF-295 CNS
SF-539 CNS = tested on: SF-539 CNS
SK-MEL-2 melanoma = tested on: SK-MEL-2 melanoma
SK-MEL-28 melanoma = tested on: SK-MEL-28 melanoma
SK-MEL-5 melanoma = tested on: SK-MEL-5 melanoma
SK-OV-3 ovarian = tested on: SK-OV-3 ovarian
SN12C renal = tested on: SN12C renal
SNB-19 CNS = tested on: SNB-19 CNS
SNB-75 CNS = tested on: SNB-75 CNS
SR leukemia = tested on: SR leukemia
SW-620 colon = tested on: SW-620 colon
T-47D breast = tested on: T-47D breast
TK-10 renal = tested on: TK-10 renal
U251 CNS = tested on: U251 CNS
UACC-257 melanoma = tested on: UACC-257 melanoma
UACC-62 melanoma = tested on: UACC-62 melanoma
UO-31 renal = tested on: UO-31 renal

## Nc1cc(C(F)F)c(-c2nc(N3[C@@H]4CC[C@H]3COC4)nc(N3[C@@H]4CC[C@H]3COC4)n2)cn1
786-0 renal
  GI50: 0.306 µM
  TGI: 14.3 µM
A498 renal
  GI50: 0.0367 µM
  TGI: 0.232 µM
A549 NSCLC
  GI50: 0.341 µM
  TGI: > 100 µM
ACHN renal
  GI50: 0.302 µM
  TGI: > 100 µM
BT-549 breast
  GI50: 0.179 µM
  TGI: 2.77 µM
CAKI-1 renal
  GI50: 0.188 µM
  TGI: 3.21 µM
CCRF-CEM leukemia
  GI50: 0.69 µM
  TGI: > 100 µM
COLO 205 colon
  GI50: 0.329 µM
  TGI: 14.5 µM
DU-145 prostate
  GI50: 0.426 µM
  TGI: > 100 µM
EKVX NSCLC
  GI50: 0.277 µM
  TGI: 6.61 µM
HCC-2998 colon
  GI50: 0.636 µM
  TGI: > 100 µM
HCT-116 colon
  GI50: 0.769 µM
  TGI: > 100 µM
HCT-15 colon
  GI50: 0.345 µM
  TGI: > 100 µM
HL-60(TB) leukemia
  GI50: 2.29 µM
  TGI: > 100 µM
HOP-62 NSCLC
  GI50: 0.161 µM
  TGI: 2.36 µM
HOP-92 NSCLC
  GI50: 0.0688 µM
  TGI: 0.722 µM
HS 578T breast
  GI50: 0.18 µM
  TGI: 0.908 µM
HT29 colon
  GI50: 0.628 µM
  TGI: > 100 µM
IGROV1 ovarian
  GI50: 0.146 µM
  TGI: 1.54 µM
K-562 leukemia
  GI50: 0.673 µM
  TGI: > 100 µM
KM12 colon
  GI50: 0.569 µM
  TGI: > 100 µM
LOX IMVI melanoma
  GI50: 0.336 µM
  TGI: > 48 µM
M14 melanoma
  GI50: 0.295 µM
  TGI: 23.9 µM
MALME-3M melanoma
  GI50: 0.0713 µM
  TGI: 0.877 µM
MCF7 breast
  GI50: 0.189 µM
  TGI: > 100 µM
MDA-MB-231 breast
  GI50: 0.406 µM
  TGI: > 93.3 µM
MDA-MB-435
  GI50: 0.378 µM
  TGI: > 30.6 µM
MOLT-4 leukemia
  GI50: 0.796 µM
  TGI: > 100 µM
NCI-H226 lung
  GI50: 0.244 µM
  TGI: > 21.9 µM
NCI-H23 lung
  GI50: 0.652 µM
  TGI: > 100 µM
NCI-H460 lung
  GI50: 0.306 µM
  TGI: > 100 µM
NCI-H522 lung
  GI50: 0.295 µM
  TGI: > 100 µM
NCI/ADR-RES ovarian
  GI50: 0.603 µM
  TGI: 39.5 µM
OVCAR-3 ovarian
  GI50: 0.435 µM
  TGI: > 100 µM
OVCAR-4 ovarian
  GI50: 0.191 µM
  TGI: 2.03 µM
OVCAR-5 ovarian
  GI50: 0.3 µM
  TGI: 43 µM
OVCAR-8 ovarian
  GI50: 0.465 µM
  TGI: > 100 µM
PC-3 prostate
  GI50: 0.239 µM
  TGI: > 100 µM
RPMI-8226 leukemia
  GI50: 0.237 µM
RXF 393 renal
  GI50: 0.18 µM
  TGI: 0.816 µM
SF-268 CNS
  GI50: 0.374 µM
  TGI: > 100 µM
SF-295 CNS
  GI50: 0.19 µM
  TGI: 1.78 µM
SF-539 CNS
  GI50: 0.297 µM
  TGI: 3.02 µM
SK-MEL-2 melanoma
  GI50: 0.388 µM
  TGI: 4.96 µM
SK-MEL-28 melanoma
  GI50: 0.203 µM
  TGI: 2.92 µM
SK-MEL-5 melanoma
  GI50: 0.407 µM
  TGI: 4.48 µM
SK-OV-3 ovarian
  GI50: 0.145 µM
  TGI: 0.769 µM
SN12C renal
  GI50: 0.342 µM
  TGI: > 100 µM
SNB-19 CNS
  GI50: 0.706 µM
  TGI: > 100 µM
SNB-75 CNS
  GI50: 0.06 µM
  TGI: 0.793 µM
SR leukemia
  GI50: 0.191 µM
  TGI: 21 µM
SW-620 colon
  GI50: 0.803 µM
  TGI: > 100 µM
T-47D breast
  GI50: 0.0533 µM
  TGI: 0.41 µM
TK-10 renal
  GI50: 0.156 µM
  TGI: 3.22 µM
U251 CNS
  GI50: 0.501 µM
  TGI: > 100 µM
UACC-257 melanoma
  GI50: 0.295 µM
  TGI: 4.31 µM
UACC-62 melanoma
  GI50: 0.212 µM
  TGI: 2.2 µM
UO-31 renal
  GI50: 0.119 µM
  TGI: 6.85 µM
